Experimental data as given in article PMC5653814, “Regiospecific Synthesis of Ring A Fused Withaferin A Isoxazoline Analogues: Induction of Premature Senescence by W-2b in Proliferating Cancer Cells” (Scientific Reports, 2017).
Like-named read-outs stand apart in the source and are kept apart here.

How the values were obtained:
[1] = test system: 4T1 mouse mammary carcinoma; test: In vivo tumor growth, 4T1 mouse mammary carcinoma model; conditions: 25 mg/kg b.w. intraperitoneal, each alternate day for two weeks
Protocol: The experiment was performed according to the pre-standardized protocol with minor modifications. To evaluate the in vivo anti-tumor efficacy of W-2b, healthy female Balb/c mice (25–30 g) were taken. Animals were randomized into three groups, and six animals were taken per group. For the tumor cells implantation, mouse mammary carcinoma 4T1 cells (1 × 10^6 per 200 μL) diluted in serum-free RPMI medium were injected subcutaneously into the mammary pad of each mouse around the second right mammary gland. A week after tumor cell implantation, when the palpable mammary tumors develop, mice were injected intraperitoneally with either vehicle (normal saline) or 5-FU (25 mg/kg/b.w.) or W-2b (25 mg/kg/b.w.) in each alternative day for two weeks. Tumor sizes were measured in each alternate day after tumor cell injection, and the body weight was recorded once in a week. Mice were sacrificed on the 15th day after treatment initiation, and tumors were dissected out carefully from the mammary pad area.

[2] = test system: MCF7 cells; test: MTT cell viability assay, MCF7; format: cell-based, human; conditions: read-out: Cytotoxicity IC50, MCF7
Protocol: (§1) The cell viability assay was performed according to the procedure previously described with minor modifications. Briefly, MCF7, HCT-116 and fR2 cells were plated in 96 well plates at a density of 5 × 10^3 cells per well and incubated overnight. […] MTT dye solution (2.5 mg/mL) was introduced to the cells in medium 4 h before the completion of the treatment period and the formed formazan crystals were solubilized with DMSO. Optical density was measured with the help of a UV-visible spectrophotometer coupled with microplate reader (TECAN, Infinite M200 Pro), the percent inhibition was calculated and IC50 values were determined with the help of GraphPad Prism software (GraphPad software Inc. CA, USA).
(§2) Data were expressed as the mean ± standard deviation of three independent experiments performed and analyzed by Student’s t-test. IC50 values were determined with the help of GraphPad Prism software Version 5.0 (GraphPad Software, Inc., USA) by taking the log of inhibitor vs. response. A 2-sided value of *P < 0.05 was considered significant in all cases.

[3] = test system: HCT-116 cells; test: MTT cell viability assay, HCT-116; format: cell-based, human; conditions: read-out: Cytotoxicity IC50, HCT-116
Protocol: as §1, §2

[4] = MTT cell viability assay, fR2 normal breast epithelial cells; format: cell-based, human; conditions: human, fR2 normal breast epithelial cells, read-out: Cytotoxicity IC50, fR2
Protocol: as §1, §2

[5] = test system: fR2 cells; test: as above; format: cell-based, human; conditions: 48 h, read-out: Cytotoxicity IC50, fR2
Protocol: as §1, §2

[6] = test system: MCF7 cells; test: SA-β-gal activity assay, MCF7; format: cell-based, human; conditions: MCF7, five days; doxorubicin 100 nM, WA 2–3 µM
Protocol: (§3) The procedure was followed as described previously with some modifications. Briefly, MCF7 and HCT-116 cells (0.4 × 10^6 per well) were seeded in six-well plates and treated with indicated concentrations of W-2b along with WA, vehicle and positive control doxorubicin for five days. Cells were accordingly washed twice with PBS, fixed with 4% paraformaldehyde for 5 min, rinsed twice with PBS and incubated with freshly prepared staining solution (40 mM citric acid/Na phosphate buffer, 5 mM K4[Fe(CN)6] 3H2O, 5 mM K3[Fe(CN)6], 150 mM sodium chloride, 2 mM magnesium chloride and 1 mg/ml X-gal in distilled water, pH 6.0) for 48 h at 37 °C. Stained cells were thoroughly washed and air dried in dark. Cells were then observed under bright field microscope (NIKON) for the SA-β-gal positive cells and images were captured at 20x magnification.

[7] = test system: HCT-116 cells; test: SA-β-gal activity assay, HCT-116; format: cell-based, human; conditions: HCT-116, five days; doxorubicin 100 nM, WA 2–3 µM
Protocol: as §3

[8] = Homo sapiens, HCT-116, 48 h, 48 h

Row | Structure (SMILES) | IC50 ([2]; Homo sapiens, MCF7, 48 h, 48 h) | IC50 [3, 8] | IC50 at 48 h [4] | IC50 ([2]; 48 h) | IC50 ([3]; 48 h) | further results
1 | O=c1[nH]cc(F)c(=O)[nH]1 [5-FU, 5-fluorouracil, reference compound] |  |  |  |  |  | Inhibition in tumor volume ([1]; Balb/c mice): 78.4%; Inhibition in tumor weight ([1]; vs normal saline group): 86.7%
2 | CC1=C(CO)C(=O)O[C@@H]([C@@H](C)C2CCC3C4C[C@H]5O[C@]56[C@@H](O)[C@H]5ON=C(c7ccc(Cl)cc7)[C@H]5C(=O)[C@]6(C)C4CC[C@@]32C)C1 (stereo partly drawn) [W-1a, 4-chlorophenyl-2-isoxazoline withaferin A] | 3.8 ± 0.378 µM | 5.62 ± 0.412 µM | 45.8 ± 5.19 µM |  |  | 
3 | CC1=C(CO)C(=O)O[C@@H]([C@@H](C)C2CCC3C4C[C@H]5O[C@]56[C@@H](O)[C@@H]5ON=C(c7ccc(Cl)cc7)[C@@H]5C(=O)[C@]6(C)C4CC[C@@]32C)C1 (stereo partly drawn) [W-1b, 4-chlorophenyl-2-isoxazoline withaferin A] | 1.64 ± 0.267 µM | 16.2 ± 0.676 µM | 39.2 ± 3.81 µM |  |  | 
4 | CC1=C(CO)C(=O)OC(C(C)C2CCC3C4CC5OC56C(O)C5ON=C(c7ccc([N+](=O)[O-])cc7)C5C(=O)C6(C)C4CCC23C)C1 (stereo not drawn) [W-2a, 4-nitrophenyl-2-isoxazoline withaferin A] |  |  | 52.1 ± 6.6 µM | 5.82 ± 0.418 µM | 8.2 ± 0.211 µM | 
5 | CC1=C(CO)C(=O)OC(C(C)C2CCC3C4CC5OC56C(O)C5ON=C(c7ccc(Br)cc7)C5C(=O)C6(C)C4CCC23C)C1 (stereo not drawn) [W-3a, 4-bromophenyl-2-isoxazoline withaferin A] |  |  | > 100 µM | 95.5 ± 5.41 µM | 45.8 ± 2.34 µM | 
6 | CC1=C(CO)C(=O)OC(C(C)C2CCC3C4CC5OC56C(O)C5ON=C(c7ccc(Br)cc7)C5C(=O)C6(C)C4CCC23C)C1 (stereo not drawn) [W-3b, 4-bromophenyl-2-isoxazoline withaferin A] |  |  |  | 1.82 ± 0.33 µM | 15.9 ± 1.67 µM | IC50 [5]: 85.3 ± 9.5 µM
7 | CC1=C(CO)C(=O)OC(C(C)C2CCC3C4CC5OC56C(O)C5ON=C(c7ccc(F)cc7)C5C(=O)C6(C)C4CCC23C)C1 (stereo not drawn) [W-4a, 4-fluorophenyl-2-isoxazoline withaferin A] |  |  |  | > 100 µM | 19.6 ± 1.81 µM | IC50 [5]: > 100 µM
8 | CC1=C(CO)C(=O)OC(C(C)C2CCC3C4CC5OC56C(O)C5ON=C(c7ccc(F)cc7)C5C(=O)C6(C)C4CCC23C)C1 (stereo not drawn) [W-4b, 4-fluorophenyl-2-isoxazoline withaferin A] | > 100 µM |  | > 100 µM |  | > 100 µM | 
9 | CC1=C(CO)C(=O)OC(C(C)C2CCC3C4CC5OC56C(O)C5ON=C(c7ccncc7)C5C(=O)C6(C)C4CCC23C)C1 (stereo not drawn) [W-5a, pyridenyl-2-isoxazoline withaferin A] |  | 63.8 ± 5.43 µM | > 100 µM | 3.52 ± 0.185 µM |  | 
10 | CC1=C(CO)C(=O)OC(C(C)C2CCC3C4CC5OC56C(O)C5ON=C(c7ccncc7)C5C(=O)C6(C)C4CCC23C)C1 (stereo not drawn) [W-5b, pyridenyl-2-isoxazoline withaferin A] |  |  |  | 9.7 ± 0.55 µM | 42.4 ± 3.19 µM | IC50 [5]: 91.2 ± 7.33 µM
11 | CC1=C(CO)C(=O)OC(C(C)C2CCC3C4CC5OC56C(O)C5ON=C(c7ccc(Cl)cc7Cl)C5C(=O)C6(C)C4CCC23C)C1 (stereo not drawn) [W-6a] |  |  | > 100 µM | 2.28 ± 0.265 µM | > 100 µM | 
12 | COc1ccc(Br)cc1C1=NOC2C1C(=O)C1(C)C3CCC4(C)C(C(C)C5CC(C)=C(CO)C(=O)O5)CCC4C3CC3OC31C2O (stereo not drawn) [W-7a, 3-bromo-6-methoxyphenyl-2-isoxazoline withaferin A] | 70.6 ± 5.18 µM | 8.1 ± 1.66 µM | > 100 µM |  |  | 
13 | CC1=C(CO)C(=O)OC(C(C)C2CCC3C4CC5OC56C(O)C5ON=C(c7ccccc7C(F)(F)F)C5C(=O)C6(C)C4CCC23C)C1 (stereo not drawn) [W-8a, 2-trifluoromethylphenyl-2-isoxazoline withaferin A] | 17.6 ± 1.68 µM | 7.5 ± 1.13 µM | 28.2 ± 4.21 µM |  |  | 
14 | COc1cc(C(F)(F)F)ccc1C1=NOC2C1C(=O)C1(C)C3CCC4(C)C(C(C)C5CC(C)=C(CO)C(=O)O5)CCC4C3CC3OC31C2O (stereo not drawn) [W-9b, 2-methoxy-4-trifluorophenyl-2-isoxazoline withaferin A] | > 100 µM | 15.8 ± 3.31 µM | 66.2 ± 7.63 µM |  |  | 
15 | CC1=C(CO)C(=O)OC(C(C)C2CCC3C4CC5OC56C(O)C5ON=C(c7c(Cl)cccc7Cl)C5C(=O)C6(C)C4CCC23C)C1 (stereo not drawn) [W-10a, 2,6-dichlorophenyl-2-isoxazoline withaferin A] | 58.3 ± 3.24 µM | 5.28 ± 0.561 µM | 98.1 ± 7.18 µM |  |  | 
16 | CC1=C(CO)C(=O)OC(C(C)C2CCC3C4CC5OC56C(O)C5ON=C(c7ccc(C(F)(F)F)cc7)C5C(=O)C6(C)C4CCC23C)C1 (stereo not drawn) [W-11a, 4-trifluorophenyl-2-isoxazoline withaferin A] | > 100 µM |  | > 100 µM |  | 24.5 ± 2.55 µM | 
17 | CC1=C(CO)C(=O)OC(C(C)C2CCC3C4CC5OC56C(O)C5ON=C(c7ccc(C(F)(F)F)cc7)C5C(=O)C6(C)C4CCC23C)C1 (stereo not drawn) [W-11b, 4-trifluorophenyl-2-isoxazoline withaferin A] |  |  |  | 83.3 ± 6.51 µM | 4.16 ± 0.344 µM | IC50 [5]: > 100 µM
18 | CC(=O)OCC1=C(C)C[C@H]([C@@H](C)C2CCC3C4C[C@H]5O[C@]56[C@@H](OC(C)=O)[C@@H]5ON=C(c7ccc(F)cc7)[C@@H]5C(=O)[C@]6(C)C4CC[C@@]32C)OC1=O (stereo partly drawn) [W-12b, 4-fluorophenyl-2-isoxazoline 4,27-acetylwithaferin A] | 26.9 ± 2.22 µM | 5.29 ± 0.151 µM | 75.6 ± 4.82 µM |  |  | 
19 | CC1=C(CO)C(=O)O[C@@H]([C@@H](C)[C@H]2CC[C@H]3[C@@H]4C[C@H]5O[C@]56[C@@H](O)C=CC(=O)[C@]6(C)[C@H]4CC[C@]23C)C1 [WA, Withaferin A] | 1.75 ± 0.376 µM | 2.58 ± 0.415 µM | 43.3 ± 3.77 µM |  |  | IC50 ([2]; Homo sapiens, MCF7, 24 h, 24 h): 9.18 ± 1.36 µM; IC50 ([2]; Homo sapiens, MCF7, 72 h, 72 h): 1.46 ± 0.291 µM; IC50 ([3]; Homo sapiens, HCT-116, 24 h, 24 h): 4.38 ± 1.67 µM; IC50 ([3]; Homo sapiens, HCT-116, 72 h, 72 h): 2.13 ± 0.55 µM; IC50 at 24 h ([4]; 24 h): 51.1 ± 5.18 µM; IC50 at 72 h ([4]; 72 h): 38.3 ± 5.22 µM; SA-β-gal staining, senescent cells (in words) [6]: very less number of senescent cells; SA-β-gal staining, senescent cells (in words) [7]: very less number of senescent cells
20 | COc1cccc2c1C(=O)c1c(O)c3c(c(O)c1C2=O)C[C@@](O)(C(=O)CO)C[C@@H]3O[C@H]1C[C@H](N)[C@H](O)[C@H](C)O1 [doxorubicin] |  |  |  |  |  | SA-β-gal staining, senescent cells (in words) [6]: substantial increase in the number of cells with distinct senescence phenotype; SA-β-gal staining, senescent cells (in words) [7]: substantial increase in the number of cells with distinct senescence phenotype
